Results published in ChEMBL document CHEMBL1201862, “PubChem BioAssay data set” (2004).
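Protocol summary: plate cells (96-well), add compound at 5 concentrations, incubate 48 h, interpolate endpoints linearly. At the GI50, growth is halved.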 Active and inactive are the calls of the source. Rule as the data show it: active = GI50 up to about 1.1 µM and inactive = higher.

Assays:
Assay in all cases: growth of human tumour cells (NCI), 48 h
[1] = system: TK-10
[2] = system: HCT-116
[3] = system: SF-539
[4] = system: SR
[5] = system: RXF 631
[6] = system: HCT-15
[7] = system: Malme-3M
[8] = system: MOLT-4
[9] = system: K562
[10] = system: COLO 205
[11] = system: ACHN
[12] = system: LXFL 529
[13] = system: DLD-1
[14] = system: U-251
[15] = system: KM-20L2
[16] = system: M19-MEL
[17] = system: A498
[18] = system: SN12C
[19] = system: NCI-H522
[20] = system: OVCAR-3
[21] = system: SNB-19
[22] = system: SK-MEL-28
[23] = system: CAKI-1
[24] = system: SNB-75
[25] = system: UACC-62
[26] = system: NCI-H460
[27] = system: SF-268
[28] = system: UACC-257
[29] = system: 786-0
[30] = system: DMS-114
[31] = system: OVCAR-8
[32] = system: A549
[33] = system: EKVX
[34] = system: SK-MEL-5
[35] = system: OVCAR-4
[36] = system: HOP-18
[37] = system: M14
[38] = system: SK-MEL-2
[39] = system: UO-31
[40] = system: SK-OV-3
[41] = system: HCC 2998
[42] = system: RPMI-8226
[43] = system: CCRF-CEM
[44] = system: SNB-78
[45] = system: HL-60
[46] = system: KM12
[47] = system: IGROV-1
[48] = system: NCI-H226
[49] = system: HOP-62
[50] = system: DMS-273
[51] = system: SW-620
[52] = system: HT-29
[53] = system: HOP-92
[54] = system: NCI-H23
[55] = system: OVCAR-5
[56] = system: RXF 393
[57] = system: SF-295
[58] = system: LOX IMVI

Cc1[nH]c(=O)nc(N/N=C/c2ccc(O)cc2)c1C(=O)Nc1ccc(Cl)cc1
GI50 [1]: > 100 µM (inactive)
GI50 [2]: > 100 µM (inactive)
GI50 [3]: > 100 µM (inactive)
GI50 [4]: > 100 µM (inactive)
GI50 [5]: > 100 µM (inactive)
GI50 [6]: > 100 µM
GI50 [7]: > 100 µM (inactive)
GI50 [8]: > 100 µM (inactive)
GI50 [9]: > 100 µM (inactive)
GI50 [10]: > 100 µM (inactive)
GI50 [11]: > 100 µM (inactive)
GI50 [12]: > 100 µM (inactive)
GI50 [13]: > 100 µM (inactive)
GI50 [14]: > 100 µM (inactive)
GI50 [15]: > 100 µM (inactive)
GI50 [16]: > 100 µM (inactive)
GI50 [17]: > 100 µM (inactive)
GI50 [18]: > 100 µM (inactive)
GI50 [19]: > 100 µM (inactive)
GI50 [20]: > 100 µM (inactive)
GI50 [21]: > 100 µM (inactive)
GI50 [22]: > 100 µM (inactive)
GI50 [23]: > 100 µM (inactive)
GI50 [24]: > 100 µM (inactive)
GI50 [25]: > 100 µM (inactive)
GI50 [26]: > 100 µM (inactive)
GI50 [27]: > 100 µM (inactive)
GI50 [28]: > 100 µM (inactive)
GI50 [29]: > 100 µM (inactive)
GI50 [30]: > 100 µM (inactive)
GI50 [31]: > 100 µM (inactive)
GI50 [32]: > 100 µM (inactive)
GI50 [33]: > 100 µM (inactive)
GI50 [34]: 88.1 µM (inactive)
GI50 [35]: > 100 µM (inactive)
GI50 [36]: > 100 µM (inactive)
GI50 [37]: 45.5 µM (inactive)
GI50 [38]: > 100 µM (inactive)
GI50 [39]: > 100 µM (inactive)
GI50 [40]: > 100 µM (inactive)
GI50 [41]: > 100 µM (inactive)
GI50 [42]: > 100 µM (inactive)
GI50 [43]: > 100 µM (inactive)
GI50 [44]: > 100 µM (inactive)
GI50 [45]: > 100 µM (inactive)
GI50 [46]: > 100 µM (inactive)
GI50 [47]: > 100 µM (inactive)
GI50 [48]: 65.2 µM (inactive)
GI50 [49]: > 100 µM (inactive)
GI50 [50]: > 100 µM (inactive)
GI50 [51]: > 100 µM (inactive)

O=C1C=C(Nc2ccc(S(=O)(=O)Nc3ncccn3)cc2)c2ccccc2C1=O
GI50 [1]: 37.4 µM (inactive)
GI50 [2]: 18.9 µM (inactive)
GI50 [3]: 27.3 µM (inactive)
GI50 [4]: 8.53 µM (inactive)
GI50 [52]: 22.6 µM (inactive)
GI50 [5]: 22.3 µM (inactive)
GI50 [53]: 33 µM (inactive)
GI50 [6]: 22.5 µM
GI50 [7]: 23.9 µM (inactive)
GI50 [8]: 48.5 µM (inactive)
GI50 [9]: 15.6 µM (inactive)
GI50 [10]: 22.5 µM (inactive)
GI50 [54]: 17.4 µM (inactive)
GI50 [11]: 27 µM (inactive)
GI50 [12]: 23.2 µM (inactive)
GI50 [13]: 20.7 µM (inactive)
GI50 [14]: 17.6 µM (inactive)
GI50 [15]: 28.7 µM (inactive)
GI50 [16]: 15.5 µM (inactive)
GI50 [17]: 30.3 µM (inactive)
GI50 [18]: 21.5 µM (inactive)
GI50 [55]: 19.5 µM (inactive)
GI50 [19]: 17.8 µM (inactive)
GI50 [20]: 14.6 µM (inactive)
GI50 [21]: 31.2 µM (inactive)
GI50 [22]: 26 µM (inactive)
GI50 [23]: 32.1 µM (inactive)
GI50 [24]: 25.1 µM (inactive)
GI50 [25]: 17.9 µM (inactive)
GI50 [26]: 20.7 µM (inactive)
GI50 [27]: 28.5 µM (inactive)
GI50 [28]: 20.1 µM (inactive)
GI50 [56]: 23.3 µM (inactive)
GI50 [29]: 19.8 µM (inactive)
GI50 [31]: 20.2 µM (inactive)
GI50 [32]: 25.3 µM (inactive)
GI50 [33]: 24.7 µM (inactive)
GI50 [57]: 20.6 µM (inactive)
GI50 [34]: 18.2 µM (inactive)
GI50 [35]: 21.8 µM (inactive)
GI50 [36]: 26.3 µM (inactive)
GI50 [37]: 18.2 µM (inactive)
GI50 [38]: 18.4 µM (inactive)
GI50 [39]: 24 µM (inactive)
GI50 [40]: 26.7 µM (inactive)
GI50 [41]: 18 µM (inactive)
GI50 [42]: 37.6 µM (inactive)
GI50 [43]: 26.3 µM (inactive)
GI50 [44]: 28.8 µM (inactive)
GI50 [45]: 25.4 µM (inactive)
GI50 [46]: 18.4 µM (inactive)
GI50 [47]: 26.5 µM (inactive)
GI50 [48]: 28.4 µM (inactive)
GI50 [49]: 24.5 µM (inactive)
GI50 [50]: 27.7 µM (inactive)
GI50 [58]: 15.8 µM (inactive)
GI50 [51]: 19.5 µM (inactive)
